# Experimental data from patent US7109380B2, “Cyclopentenedione antifungal compounds and methods for their use” (The University of Mississippi, priority 2004, dated 2006).
# “And” between values parts separate entries of the source, which are not always exact repeats. Equal entries are not always repeated. Where two headings read alike, the source gives them in different places.
# How the values were obtained:
# [1] = test system: Candida albicans ATCC 90028; assay: In vitro antifungal susceptibility testing (modified NCCLS method), media pH 7.3; type: cell-based; conditions: Candida albicans ATCC 90028, Table 1
# [2] = test system: Cryptococcus neoformans ATCC 90113; assay: In vitro antifungal susceptibility testing (modified NCCLS method); type: cell-based; conditions: for IC50: read-out: IC50 (50% inhibitory concentration)
# [3] = test system: C. albicans ATCC 90028; assay: In vitro antimicrobial assay (modified NCCLS), Candida media pH 4.5; type: cell-based, Candida albicans; conditions: C. albicans ATCC 90028, pH 4.5, Table 3; for IC50: read-out: IC50 (50% inhibitory concentration)
# [4] = test system: C. glabrata ATCC 90030; assay: as above; type: cell-based, Candida glabrata; conditions: C. glabrata ATCC 90030, pH 4.5; for IC50: read-out: IC50 (50% inhibitory concentration)
# [5] = test system: C. krusei ATCC 6258; assay: as above; type: cell-based, Candida krusei; conditions: C. krusei ATCC 6258, pH 4.5; for IC50: Pichia kudriavzevii, ATCC6258, read-out: IC50 (50% inhibitory concentration)
# [6] = test system: M. intracellulare ATCC 23068; assay: In vitro antibacterial assay (modified method of Franzblau, Alamar Blue); type: cell-based; conditions: Mycobacterium intracellulare, ATCC23068, M. intracellulare ATCC 23068; for IC50: read-out: IC50 (50% inhibitory concentration); for MBC: read-out: MBC (Minimum Bactericidal Concentration)
# [7] = test system: several cancer cell lines; conditions: background; cited from earlier work
# [8] = biological target: human chymase (Homo sapiens, UniProt P23946); conditions: background; cited from earlier work
# Chain of human chymase (P23946 22-247): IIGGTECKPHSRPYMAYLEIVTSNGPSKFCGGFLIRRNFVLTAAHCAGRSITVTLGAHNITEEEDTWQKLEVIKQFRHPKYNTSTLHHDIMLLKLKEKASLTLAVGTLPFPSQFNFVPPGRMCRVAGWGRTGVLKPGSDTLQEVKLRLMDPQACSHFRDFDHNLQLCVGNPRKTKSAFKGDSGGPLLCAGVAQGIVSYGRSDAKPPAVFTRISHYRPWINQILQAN
# [9] = test system: wheat leaf rust caused by Puccinia recondite; conditions: background; cited from earlier work
# [10] = Cr. neoformans ATCC 90113, Table 3
# [11] = Cryptococcus neoformans ATCC 90113, Table 1
# [12] = Cryptococcus neoformans, ATCC90113, Cr. neoformans ATCC 90113, Table 3
# [13] = Candida albicans, ATCC90028, read-out: MFC
# [14] = Candida albicans, ATCC90028, read-out: MIC
# [15] = Nakaseomyces glabratus, ATCC90030
# [16] = Nakaseomyces glabratus, ATCC90030, read-out: MFC
# [17] = Nakaseomyces glabratus, ATCC90030, read-out: MIC
"IC50 [2, 12] [µg/mL]","IC50 ([3]; Candida albicans, ATCC90028) [µg/mL]","MIC [3, 14] [µg/mL]","IC50 [4, 15] [µg/mL]","MIC [4, 17] [µg/mL]",IC50 [5] [µg/mL],MIC [6] [µg/mL],IC50 [6] [µg/mL],SMILES,"MFC [3, 13] [µg/mL]","MFC [4, 16] [µg/mL]",MBC [6] [µg/mL],further results
,,,,,,,,"C[C@@H]1[C@H](O)[C@@H](C)/C=C/C=C/C=C/C=C/C=C/C=C/C=C/[C@H](O[C@@H]2O[C@H](C)[C@@H](O)[C@H](N)[C@@H]2O)C[C@@H]2O[C@](O)(C[C@@H](O)C[C@@H](O)[C@H](O)CC[C@@H](O)C[C@@H](O)CC(=O)O[C@H]1C)C[C@H](O)[C@H]2C(=O)O [Amphotericin B, reference compound]",,,,"MFC (Minimum Fungicidal Concentration) [1]: 5.00 µg/mL; MIC (Minimum Inhibitory Concentration) [1]: 2.50 µg/mL; IC50 (50% inhibitory concentration) [2, 10]: 0.50 µg/mL; MFC [2, 10]: 1.25 µg/mL; MIC [2, 10]: 1.25 µg/mL; MFC (Minimum Fungicidal Concentration) [2, 11]: 2.5 µg/mL; MIC (Minimum Inhibitory Concentration) [2, 11]: 2.5 µg/mL; IC50 (50% inhibitory concentration) [3]: 0.45 µg/mL; MFC [3]: 1.25 µg/mL; MIC [3]: 1.25 µg/mL; IC50 (50% inhibitory concentration) [4]: 0.20 µg/mL; MFC [4]: 1.25 µg/mL; MIC [4]: 1.25 µg/mL; IC50 (50% inhibitory concentration) [5]: 0.45 µg/mL; MFC [5]: 1.25 µg/mL; MIC [5]: 1.25 µg/mL"
20,1,2.5,1.5,2.5,4.5,20,10,"CC1=CC(=O)/C(=C(O)/C=C/c2ccccc2)C1=O [Compound 2, coruscanone B]",5,5,,"MIC ([1]; ATCC90028, read-out: MIC (Minimum Inhibitory Concentration)): 50 µg/mL; melting point: 125 °C and 124 °C"
2,2,5,4.5,10,8,20,7.5,CCOC(/C=C/c1ccccc1)=C1/C(=O)C=C(C)C1=O [Compound 7],10,20,20,"MIC ([2]; Cryptococcus neoformans, ATCC90113, Cr. neoformans ATCC 90113, Table 3, read-out: MIC): 20 µg/mL"
4.5,1,10,5.5,,9,20,15,CC(=O)OC(/C=C/c1ccccc1)=C1/C(=O)C=C(C)C1=O [Compound 8],,,20,
,,,,,,,,COC(/C=C/c1ccccc1)=C1C(=O)C(OC)=C(OC)C1=O [methyllinderone],,,,Cytotoxicity (in words) [7]: cytotoxic; Inhibition of human chymase (in words) [8]: moderate inhibitor
,,,,,,,,COC1=CC(=O)/C(=C(\C=C\c2ccccc2)OC)C1=O [methyllucidone],,,,Antifungal activity against wheat leaf rust (in words) [9]: moderately antifungal activity
